Where two headings read alike, the source gives them in different places.
Test system: SKOV3 (ovarian adenocarcinoma)
Settings: human, 72 h

Question: Which results are given for `CC/C=C\C/C=C\C/C=C\C/C=C\C/C=C\CCCC(=O)OCC(COC1OC(CO)C(O)C(O)C1O)OC(=O)CCCCCCCCCCCCCCC` (centres unmarked) [Compound 2, MGDG C20:5/C16:0]?
Answer: Average cell viability (10 ug/mL): 94%; Average cell viability (50 ug/mL): 62%
